Source: PMC11302729, “Repurposing Hsp90 inhibitors as antimicrobials targeting two-component systems identifies compounds leading to loss of bacterial membrane integrity” (Microbiology Spectrum, 2024)

What was measured:
S. aureus PhoR = S. aureus PhoR (Staphylococcus aureus, UniProt Q2FXN7); assay: HK autophosphorylation inhibition, PhoR; format: biochemical; conditions: ± SD, n = 2; 10 mM ATP
Procedure: Cytoplasmic domains from S. aureus PhoR and E. coli EnvZ as well the CA domain of Thermotoga maritima CheA were cloned in pNIC28-Bsa4 ([54]) plasmid containing His6-tag expressed in E. coli RIL and purified as previously described ([21], [55], [56]) using His-affinity and size exclusion chromatography. Briefly, E. coli RIL strains carrying the appropriate plasmid were grown in 1 L Luria broth (LB) (Merck Millipore) supplemented with kanamycin (100 µg/mL) with shaking (200 r.p.m.) at 37°C. When OD600 reached 0.5, 1 mM isopropyl-ß-D-1-thiogalactopyranoside (IPTG) was added to induce protein expression and cells were grown for 3 more hours. Cells were harvested by centrifugation (4,000 g, 4°C), resuspended in 40 mL buffer A (50 mM Tris-HCl pH 8.0, 0.5 M NaCl, 10% glycerol, and 1 mM phenylmethanesulfonyl fluoride), sonicated (4°C, 5 min with pulses of 15 sec at intervals of 1 min), and centrifuged (11,000 g, 4°C, 60 min). Supernatant was passed through a 5-mL HisTrap HP column (GE Healthcare) equilibrated in buffer A using the AKTA system (GE Healthcare). His-column was washed with buffer A (80 mL), and a linear gradient of imidazole (range 0 to 0.25 M) in buffer A was applied. The purest fractions evaluated by SDS-PAGE were collected, concentrated by ultrafiltration in a Amicon Ultra-15 (10- or 30-kDa exclusion) (Merck Millipore), and further purified by gel filtration using Superdex 200 column (GE Healthcare), equilibrated in buffer B (50 mM TrisHCl, pH 8.0, 0.2 M NaCl, and 5% glycerol). Purified proteins were then concentrated using ultrafiltration and stored at −80°C.
Autophosphorylation inhibition assays were performed in kinase assay buffer [100 mM Tris-HCl (pH 8.0), 5 mM MgCl2, 10 mM DTT], containing 5 µg of purified HK and 10 mM ATP for 30 min at 25°C. The reaction was stopped by adding gel loading buffer containing 16% SDS before loading the reaction on a 12% SDS-PAGE. […] The phosphorylated histidine was detected by western blotting by then incubating the membrane for 60 min with 1:1,000 anti-N1-phosphohistidine antibody (Merck Millipore) in TBS-T followed by a washing step for 30 min with TBS-T and a final 60-min incubation with 1:10,000 horseradish […] anti-rabbit IgG (Promega) in TBS-T. Chemiluminescent reaction was measured using Pierce ECL immunoblotting substrate (Thermo Scientific) in a LAS 3000 image analyzer (Fujifilm Life Science, Tokyo, Japan) followed by densitometric analysis using Multi Gauge image-analysis software (Fujifilm Life Science, Tokyo, Japan). The inhibitor concentrations required to halve the chemiluminescence intensity (IC50) were determined using Prism 4.1 (GraphPad Software, San Diego, CA, USA).

HEK293 cells = assay: Cell imaging of HEK293 cells; format: cell-based; conditions: LC20, 24 hours exposure, 40× amplification
Procedure: HEK293 cells were plated in 24-well plates on exposure medium for 24 hours (500,000 cells/well). Cells were exposed to a subset of compounds at a lethal concentration of 20% (LC20). After 24 hours exposure, cells were fixed with 2% glutaraldehyde for 15 min, washed with water, permeabilized with 0.5% Triton-X, washed twice with water, and stained with Toluidine blue 0.3%. For 100× amplification, cells were harvested by pipetting up and down in 250 µL of exposure medium. Cells from three wells treated with the same compound were pooled and centrifuged for 5 min at 1,500 r.p.m. The cell pellet was fixed in 0.1 M cacodylate buffer containing 2% glutaraldehyde (vol/vol) (pH 7.4). After 1 hour on ice, the pellet was washed with 0.1 M cacodylate buffer and fixed in 0.1 M cacodylate buffer containing 1% osmium tetroxide (wt/vol). After a further hour on ice, the cell pellet was embedded in hard Epon and 1-µm slides were cut and stained with 1% toluidine blue and 1% borax (wt/vol). Cell abnormalities were assessed by microscopy using a Leica DM6B light microscope (Leica Microsystems B.V., Amsterdam, the Netherlands) at 100× magnification.

Haemolysis assay = format: cell-based, sheep; conditions: sheep, sheep red blood cells, 2% suspension; read-out: RBC hemolysis
Procedure: The hemolysis assay was adapted from the study by Evans et al. ([65]). Briefly, sheep RBC 10% washed pooled cells in PBS (Rockland Immunochemicals, Limerick, PA, USA) were diluted 1:5 to give a final concentration of 2% RBCs in PBS. […] A non-treated control, 1% DMSO (vehicle control), and complete cell lysis control (Triton-X 2%) were included in each assay. After exposure samples were centrifuged at 4°C at 1,000 g for 15 min and 100 µL of supernatant transferred to a clean well in a 96-well, clear, flat-bottom plate (Corning Incorporated). Released hemoglobin was measured by absorption at 540 nm using a Spectramax M5 plate reader. The experiments were performed in quadruplicate. The percentage of hemolysis was calculated as follows:
Hemolysis=A540nm,testcondition−A540nm,DMSOcontrol/A540nm,TritonXControl−A540nm,DMSOcontrol

S. aureus PhoR, sequence (Q2FXN7 entry or part of it): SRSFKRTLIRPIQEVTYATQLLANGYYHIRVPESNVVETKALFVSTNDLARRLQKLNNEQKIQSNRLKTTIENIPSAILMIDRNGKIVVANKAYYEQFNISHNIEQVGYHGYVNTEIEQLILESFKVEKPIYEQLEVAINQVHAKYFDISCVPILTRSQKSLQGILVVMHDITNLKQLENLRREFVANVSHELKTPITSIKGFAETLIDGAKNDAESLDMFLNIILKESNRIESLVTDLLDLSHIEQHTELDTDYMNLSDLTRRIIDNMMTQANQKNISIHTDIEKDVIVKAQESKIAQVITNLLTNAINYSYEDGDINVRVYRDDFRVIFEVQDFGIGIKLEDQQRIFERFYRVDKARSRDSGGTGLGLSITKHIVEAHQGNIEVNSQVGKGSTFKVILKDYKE

| SMILES | IC50 (S. aureus PhoR) [µM] | Morphological changes of HEK293 cells (HEK293 cells) | hemolysis at 30 min (Haemolysis assay) [%] |
| --- | --- | --- | --- |
| COc1ccc(-c2c(C(F)(F)F)n[nH]c2-c2ccc(O)cc2O)cc1 [DPP-12] | 328 ± 4.1 |  |  |
| COc1ccc(-c2[nH]nc(C(F)(F)F)c2-c2ccc(Cl)cc2)c(O)c1 [DPP-6] | 55 ± 3.8 | membrane blebbing | 100 |
| Oc1ccc(-c2n[nH]c(C(F)(F)F)c2-c2ccc(Cl)cc2)c(O)c1 [DPP-5] | 95 ± 5.6 | membrane blebbing | 100 |
| COc1ccc(-c2c(C(F)(F)F)n[nH]c2-c2ccc(OC)cc2O)cc1 [DPP-13] | 89 ± 6.9 |  |  |
